Data on nine compounds can be found in ChEMBL document CHEMBL4196159 (ACS Med Chem Lett, 2018).

≈ marks a conversion by molar mass, not a printed value. Some results are limits rather than exact numbers.
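For logD in this document: Shake-flask partitioning between octanol and buffer, equilibrated for 30 min before measurement.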

The nature of one data set: physchem. The following applies: phosphate buffer, pH 7.4.
As for `COCc1ccc(-c2ccc3nnc(C(N)=O)c(N[C@@H](C)c4ccn(C)n4)c3c2)cn1`, the thermodynamic solubility at 24 h was 76 µM (≈ 31.7 µg/mL).
Same read-out and setting: with `Cc1cn(C)nc1[C@H](C)Nc1c(C(N)=O)nnc2ccc(-c3ccc(OCCCN(C)C)nc3)cc12` the figure was 290 µM (≈ 142 µg/mL); with `C[C@H](Nc1c(C(N)=O)nnc2ccc(-c3ccc(OCCCN4CCCC4)nc3)cc12)C1CCOCC1`, 620 µM (≈ 313 µg/mL); with `CNC(=O)c1nnc2ccc(-c3ccc(OCCCN(C)C)nc3)cc2c1N[C@@H](C)c1nn(C)cc1C`, 620 µM (≈ 312 µg/mL).
Same read-out and setting: the same measure for `COCc1ccc(-c2ccc3nnc(C(N)=O)c(N[C@@H](C)c4nn(C)cc4C)c3c2)cn1`: 8 µM (≈ 3.45 µg/mL); for `C[C@H](Nc1c(C(N)=O)nnc2ccc(-c3ccc(NCCN(C)C)nc3)cc12)C1CCOCC1`: more than 1000 µM.
Same read-out and setting: with `C[C@H](Nc1c(C(N)=O)nnc2ccc(-c3ccc(OCCCN(C)C)nc3)cc12)c1ccn(C)n1` the figure was 65 µM (≈ 30.8 µg/mL).

A further data set in a line: in vitro. Conditions: human, liver microsomes.
In turn, `COCc1ccc(-c2cc3c(N[C@@H](C)c4ccn(C)n4)c(C(N)=O)cnc3cc2F)cn1` returned a microsomal CLint at 0.5 h, 1 µM of 15 µL/min/mg.
As for `COCc1ccc(-c2ccc3nnc(C(N)=O)c(N[C@@H](C)c4ccn(C)n4)c3c2)cn1`, the microsomal CLint at 0.5 h, 1 µM stood at 14 µL/min/mg.
Same read-out and setting: the same measure for `Cc1cn(C)nc1[C@H](C)Nc1c(C(N)=O)nnc2ccc(-c3ccc(OCCCN(C)C)nc3)cc12`: 27 µL/min/mg; for `C[C@H](Nc1c(C(N)=O)nnc2ccc(-c3ccc(OCCCN4CCCC4)nc3)cc12)C1CCOCC1`: 23 µL/min/mg.
Same read-out and setting: the same measure for `CNC(=O)c1nnc2ccc(-c3ccc(OCCCN(C)C)nc3)cc2c1N[C@@H](C)c1nn(C)cc1C`: 33 µL/min/mg; for `COCc1ccc(-c2ccc3nnc(C(N)=O)c(N[C@@H](C)c4nn(C)cc4C)c3c2)cn1`: 31 µL/min/mg.
The same measure, in the same setting: the same measure for `C[C@H](Nc1c(C(N)=O)nnc2ccc(-c3ccc(NCCN(C)C)nc3)cc12)C1CCOCC1`: 18 µL/min/mg.
The compound `C[C@H](Nc1c(C(N)=O)nnc2ccc(-c3ccc(OCCCN(C)C)nc3)cc12)c1ccn(C)n1` had a microsomal CLint at 0.5 h, 1 µM of 10 µL/min/mg.
Still for that read-out and setting: with `COCc1ccc(-c2ccc3ncc(C(N)=O)c(N[C@@H](C)C4CCOCC4)c3c2)cn1` the figure was 26 µL/min/mg.

Another data set is described as follows: physchem. Conditions: octanol/buffer, pH 7.4.
Regarding `COCc1ccc(-c2ccc3nnc(C(N)=O)c(N[C@@H](C)c4ccn(C)n4)c3c2)cn1`, the pH-dependent lipophilicity (logD) at 0.5 h is 3.
`Cc1cn(C)nc1[C@H](C)Nc1c(C(N)=O)nnc2ccc(-c3ccc(OCCCN(C)C)nc3)cc12` displayed a logD at 0.5 h of 2.1.
On the same count and under the same terms, with `C[C@H](Nc1c(C(N)=O)nnc2ccc(-c3ccc(OCCCN4CCCC4)nc3)cc12)C1CCOCC1` the figure was 1.9; with `CNC(=O)c1nnc2ccc(-c3ccc(OCCCN(C)C)nc3)cc2c1N[C@@H](C)c1nn(C)cc1C`, 2.3; with `COCc1ccc(-c2ccc3nnc(C(N)=O)c(N[C@@H](C)c4nn(C)cc4C)c3c2)cn1`, 2.8.
Same read-out and setting: with `C[C@H](Nc1c(C(N)=O)nnc2ccc(-c3ccc(NCCN(C)C)nc3)cc12)C1CCOCC1` the figure was 2; with `C[C@H](Nc1c(C(N)=O)nnc2ccc(-c3ccc(OCCCN(C)C)nc3)cc12)c1ccn(C)n1`, 1.7.

A short description of the next data set: in vitro. The following applies: rat, hepatocytes.
In the case of `COCc1ccc(-c2ccc3nnc(C(N)=O)c(N[C@@H](C)c4ccn(C)n4)c3c2)cn1`, the intrinsic metabolic clearance (hepatocyte CLint) at 0.5 h, 1 µM was 4.9 µL/min/1e6 cells.
On the same count and under the same terms, the same measure for `Cc1cn(C)nc1[C@H](C)Nc1c(C(N)=O)nnc2ccc(-c3ccc(OCCCN(C)C)nc3)cc12`: 12 µL/min/1e6 cells; for `C[C@H](Nc1c(C(N)=O)nnc2ccc(-c3ccc(OCCCN4CCCC4)nc3)cc12)C1CCOCC1`: 1.9 µL/min/1e6 cells; for `CNC(=O)c1nnc2ccc(-c3ccc(OCCCN(C)C)nc3)cc2c1N[C@@H](C)c1nn(C)cc1C`: 6.7 µL/min/1e6 cells.
Still for that read-out and setting: with `COCc1ccc(-c2ccc3nnc(C(N)=O)c(N[C@@H](C)c4nn(C)cc4C)c3c2)cn1` the figure was 18 µL/min/1e6 cells; with `C[C@H](Nc1c(C(N)=O)nnc2ccc(-c3ccc(NCCN(C)C)nc3)cc12)C1CCOCC1`, 4.2 µL/min/1e6 cells.
`C[C@H](Nc1c(C(N)=O)nnc2ccc(-c3ccc(OCCCN(C)C)nc3)cc12)c1ccn(C)n1` gave a hepatocyte CLint at 0.5 h, 1 µM of 7 µL/min/1e6 cells.
On to `COCc1ccc(-c2ccc3ncc(C(N)=O)c(N[C@@H](C)C4CCOCC4)c3c2)cn1`, for which the hepatocyte CLint at 0.5 h, 1 µM was less than 5.3 µL/min/1e6 cells.
